Series [1] is described as follows: Parallel Artificial Membrane Permeability (PAMPA) Assay. Format: in vitro ADME. Particulars: FIG. 5; 5 hours, room temperature. How it is done: This assay measures the permeability of small molecules across an artificial phospholipid membrane to help predict in vivo drug permeability. First, 500 μM stock solutions were made up in PBS and tested by the DTNB assay (described above) to determine compound activity concentrations. Next, 300 μL of the 500 μM compound stock solution and 200 uL PBS were added per well to the donor and acceptor plates, respectively (BD Gentest™ Pre-Coated PAMPA Plate System). The acceptor plate was then placed on top of the donor plate and allowed to incubate at room temperature for 5 hours. After incubation, the donor and acceptor plates were separated. For each reaction, samples were taken from both the acceptor and donor plates and were combined with DTNB prior to reading spectrophotometrically (maximum Abs412). For prodrug samples, 1 μL of purified esterase (porcine liver esterase; Sigma) was added per well and the samples were incubated at room temperature for 5 minutes to allow for cleavage of the pro-drug cap prior to addition of DTNB. Using the concentrations of compound identified in both the donor and acceptor plates for each sample, a compound permeability parameter was calculated following equations outlined in the BD Gentest™ Pre-Coated PAMPA Plate System Manual.

The nature of series [2]: Pro-Drug DTNB assay with or without esterase. Format: biochemical. How it is done:
The present invention provides a series of mucolytic pro-drugs (see R^6=other than H) that are activated by common enzymes that are present in the extracellular milieu (e.g., nucelotidases, phosphatases, and esterases). As a proof-of-concept, the reducing kinetics of the pro-drug compound 46 in the presence or absence of an activating esterase were tested.
This assay was designed to determine whether prodrug caps added on to our monothiol mucolytic compounds can be cleaved from the molecule. If so, the outcome would be an “active” compound that is able to reduce the S—S bond in DTNB. Similar to the activity concentration version of the DTNB assay described above, monothiol prodrugs were mixed at a final concentration of 22.5 μM with excess DTNB (100 μM final) in 1 mL 50 mM Tris-HCl buffer (pH 7.5) and maximum Abs412 was measured. In the absence of a purified hydrolytic enzyme (e.g. porcine liver esterase; Sigma), the amount of DTNB cleavage observed is an indicator for stability of the cap on the prodrug compound (i.e. if the prodrug remains intact in solution the Abs412=0). Next, 5 uL of esterase (bought as an ammonium sulfate suspension that is subsequently centrifuged to isolate the esterase and then dissolved in reaction buffer prior to assaying) is combined with excess DTNB (100 μM final) and 22.5 μM pro-drug in 1 mL 50 mM Tris-HCl buffer (pH 7.5). Cleavage of the prodrug cap can be visualized in real time via DTNB cleavage at Abs412 by the esterase-liberated monothiol molecule.

Series [3] relates to mucus on primary human bronchial epithelial (HBE) cultures. Kind of series: Mucus reduction on primary human bronchial epithelial (HBE) cultures, western blot. Particulars: FIG. 9; added to apical surface of HBE cultures. The format is cell-based. Here is the method:
(§1) Various mucin-containing substrates (e.g. saliva, harvested HBE mucus, and disease sputum) treated with our monothiol mucolytic compounds are quenched upon completion of the treatment period with a 10-fold excess of N-ethylmaleimide in order to alkylate any remaining active compound and to prevent further mucin reduction. A 10× concentrated sample loading buffer is diluted into each sample (1×TAE/5% glycerol/0.1% SDS/Bromophenol Blue). Samples ([…]) were analyzed by electrophoresis on 0.9% agarose gels using a buffer system consisting of 1×TAE/0.1% SDS. The agarose gel was soaked for 15 min in 4×SSC (0.6 M NaCl, 60 mM Tri-sodium citrate dehydrate) containing 10 mM DTT before transferring the samples from the gel onto a nitrocellulose membrane by vacuum blotter. Unreduced and reduced Muc5B were visualized on a LiCor Odyssey imaging detection system using a polyclonal antibody directed towards Muc5B.
Mucin reduction kinetics were assessed by western blot at the indicated times post-addition of mucolytic agents to the apical surface of HBE cultures.

Series [4] deals with T1, Muc5B (Homo sapiens, UniProt Q9HC84).
T1 construct: Various mucin-containing substrates (e.g. saliva, harvested HBE mucus, and disease sputum) treated with our monothiol mucolytic compounds; from tissue; host or cells: saliva; harvested HBE mucus; disease sputum
Kind of series: Muc5b reduction in COPD sputum, agarose gel western blot. Format: biochemical. Particulars: FIG. 8; spontaneously induced sputum from a patient with COPD. Here is the method: as §1
An important aspect of mucolytic pro-drugs is that they must be activated in mucus on the lung surface.

The next series deals with IL-8. Kind of series: IL-8 Secretion from primary HBEs (ELISA). As to conditions: FIG. 6B; 10 mM, apical surface of HBE cells, 24 hours. The format is cell-based, human. How it is done: Reducing agents were made up in 50 mM Tris-HCl buffered to pH 7.5. Each compound solution (15 μL of 10 mM compound) was added to the apical surface of primary HBEs.
IL-8 secretion was measured from the basolateral HBE media 24 hours post-dose using a ThermoScientific human IL-8 ELISA kit. Samples were diluted 1:50 and then 50 μL of each dilution was added to the ELISA plate. The samples were completed in duplicate following standard reaction conditions as outlined in the kit manual. Absorbance was measured at 450 nm. A standard curve, generated from standards with known amounts of human IL-8, was used to calculate IL-8 amounts in the unknown samples. Supernatant from mucopurlent matters (SMM) purified from cystic fibrosis sputum was used as a positive control for IL-8 secretion.
For orientation: ELISA stands for enzyme-linked immunosorbent assay.

For series [5], the target named is T1, Muc5B. Kind of series: Mucin agarose gel western blot (saliva / mucus samples). Format: biochemical. Particulars: for reducing capacity relative to 76 (Muc5B): FIG. 3; for Muc5b reduction: FIG. 4. How it is done:
as §1
In general terms: Immunoblotting shows a protein as a band on a membrane.

A short description of series [6]: DTNB assay: rate of S-S bond reduction. Particulars: for DTNB reduction rate: 22.5 μM reducing agent, 45 μM DTNB, 50 mM Tris-HCl. Format: biochemical. An excerpt: Thiol-containing compounds, such as the monothiol mucolytic agents described in this patent, can react with DTNB (5,5-Dithiobis(2-nitrobenzoic acid)) resulting in the cleavage of its single S—S bond. The DTNB assay serves a dual purpose in our analysis of monothiol compounds, as it can (1) be used to determine the “active concentration” of the mucolytic compounds (what amount of the compound in a reaction is able to cleave S—S bonds) and (2) to assess the rate that the compound can cleave S—S bonds. When cleaved, the resulting compound, NTB (2-nitro-5-thiobenzoate), is a colored product that is measured spectrophotometrically at an absorbance of 412 nm (Abs412). Using the molar extinction coefficient of NTB and measured maximum Abs412, the molar amount of DTNB that reacted with our mucolytic agents can be calculated. Monothiol mucolytic compounds react at a 1:1 stoichiometric ratio with DTNB (i.e. 1 mole of NTB is produced when 1 mole of DTNB is reacted with 1 mole of a monothiol reducing agent). To define the activity concentration of a compound, a final concentration of 22.5 μM mucolytic reducing agent was combined with an excess of DTNB (100 μM) in 1 mL 50 mM Tris-HCl buffer (pH 7.5). Maximum Abs412 was measured and then utilized to calculate the activity concentration. If observed activity concentrations differed from expected activity concentrations by more than 5%, the amount of the compound added to each reaction was accordingly adjusted to kinetically test the reducing rate in the next step. To determine rate of mucolytic reducing activity, 22.5 μM active reducing agent is combined with 45 μM DTNB in 1 mL 50 mM Tris-HCl buffer over a pH range (6.0-7.5). Abs412 is recorded in real time upon addition of the compound and rates were calculated using 2nd order kinetic parameters.

A short description of series [7]: Elimination of inhaled 14C-labelled NAC from the lungs in animal studies. Format: in vivo. As to conditions: inhaled or intranasal, 14C-labled NAC, administered by inhalation, animal studies (unpublished observation).

Consider `CC(=O)SCc1ccc(OCCN(C[C@H](O)[C@@H](O)[C@H](O)[C@H](O)CO)C[C@H](O)[C@@H](O)[C@H](O)[C@H](O)CO)cc1` [Compound 85, S-4-(2-(bis((2S,3R,4R,5R)-2,3,4,5,6-pentahydroxyhexyl)amino)ethoxy)benzyl Ethanethioate], for which the “membrane permeability (PAMPA)” value in series [1] is on record as “poor membrane permeability”. Besides, the “Reduction Without Esterase” value in series [2] (22.5 μM prodrug, 100 μM DTNB, pH 7.5, no enzyme) is on record as “No”. In addition, the “Reduction With Esterase” value in series [2] (22.5 μM prodrug, 100 μM DTNB, pH 7.5, porcine liver esterase) is listed as “Yes”. The “DTNB cleavage without esterase” value in series [2] (FIG. 7 middle panel) was “does not cleave DTNB”. The “DTNB cleavage after addition of an esterase” value in series [2] (FIG. 7 right-hand panel) is on record as “metabolically converts 85 to 86, allowing it to hydrolyze DTNB”. Further, in series [3], the “duration of mucus reduction” value is on record as “potentially longer duration of action” and the mucin reduction kinetics entry is “slower reduction kinetics”. Besides, on Muc5B [4], the “Muc5b reduction in sputum” value was “reduces the Muc5b, but with a delayed kinetic relative to 86”.
On to `CC(=O)SCc1ccc(OCCN)cc1.Cl` [Compound 76, S-4-(2-aminoethoxy)benzyl ethanethioate hydrochloride], for which the “membrane permeability (PAMPA)” value in series [1] is “membrane permeable”. In the series with IL-8, the IL-8 secretion result is recorded as “did not increase IL-8 secretion”. Besides, on Muc5B [5] (FIG. 2, 10 mM, 5-fold lower concentration than NAC), the “Muc5b reduction relative to NAC” value was “greater Muc5b reduction relative to NAC”. For the same compound, at Muc5B [5] (FIG. 2, equimolar concentrations relative to NAC (50 mM)), the “reduction of salivary Muc5b compared to NAC” value was “significantly faster and more complete reduction”. The DTNB reduction rate in series [6] (pH 6) was 253.2 M⁻¹ s⁻¹; in series [6] (pH 6.5), 654.24 M⁻¹ s⁻¹; in series [6] (pH 7), 1499 M⁻¹ s⁻¹; in series [6] (pH 7.5), 4633.8 M⁻¹ s⁻¹.
Consider `NCCCC[C@@H](N)C(=O)NCCOc1ccc(CS)cc1` [Compound 69, (R)-2,6-diamino-N-(2-(4-(mercaptomethyl)phenoxy)ethyl)hexanamide], for which the IL-8 secretion result in the series with IL-8 is given as “did increase IL-8 secretion”. In addition, at Muc5B [5], the “reducing capacity relative to 76 (Muc5B)” value is “retain the reducing capacity of 76”. Besides, the DTNB reduction rate in series [6] (pH 6) amounted to 485.93 M⁻¹ s⁻¹.
On to `OC[C@@H](O)[C@@H](O)[C@H](O)[C@@H](O)CN(CCOc1ccc(CS)cc1)C[C@H](O)[C@@H](O)[C@H](O)[C@H](O)CO` [Compound 86, (2R,2′R,3R,3′R,4R,4′R,5S,5′S)-6,6′-((2-(4-(mercaptomethyl)phenoxy)ethyl)azanediyl)bis(hexane-1,2,3,4,5-pentaol)], for which the “membrane permeability (PAMPA)” value in series [1] is listed as “poor membrane permeability”. In the series on IL-8, the IL-8 secretion entry was “no change in IL-8”. In series [3], the “duration of mucus reduction” value was “substantially recovered 24 hours after dosing” and the mucin reduction kinetics result is “rapid reduction of the mucus”. For the same compound, the “reducing capacity relative to 76 (Muc5B)” value at Muc5B [5] was “retain the reducing capacity of 76”. Besides, on Muc5B [5] (3 mM), the Muc5b reduction result was “partial reduction”. Moreover, the Muc5b reduction entry on Muc5B [5] (30 mM) is recorded as “full Muc5b reduction”. Moreover, the DTNB cleavage entry in series [6] (FIG. 7 left panel) was “rapidly cleaves DTNB”. For the same compound, the DTNB reduction rate in series [6] (pH 6) worked out at 160 M⁻¹ s⁻¹. For the same compound, the “Muc5b reduction in sputum” value at Muc5B [4] was “rapidly reduced Muc5b”.
As for `CC(=O)N[C@@H](CS)C(=O)O` [NAC, N-acetyl cysteine, reference compound], in series [7], the half-life (usually how long it takes for the measured level to halve) is approximately 20 min. The Muc5b reduction entry on Muc5B [5] (30 mM) is listed as “partial Muc5b reduction”. Further, the DTNB reduction rate in series [6] (pH 6) was found to be 10 M⁻¹ s⁻¹; in series [6] (pH 6.5) it was 26 M⁻¹ s⁻¹; in series [6] (pH 7), 69 M⁻¹ s⁻¹; in series [6] (pH 7.5) it was 230 M⁻¹ s⁻¹.

These data come from patent US10106551B2, “Monothiol mucolytic agents” (PARION SCIENCES, INC., priority 2015, dated 2018).
